Results as given in ChEMBL document CHEMBL5029168, “Discovery of novel ID2 antagonists from pharmacophore-based virtual screening as potential therapeutics for glioma” (Bioorg Med Chem, 2021).
Active and inactive are the calls of the source. The calls are words filed in the database; no cut-off is given here.

Experiments:
U87 [1] = assay: Inhibition of ID2/KDR signalling in human U87 cells assessed as reduction in ID2 mRNA expression at 12.5 to 50 uM measured after 24 hrs by qRT-PCR analysis; format: cell-based; settings: filed as antagonist, dose 12.5-50 µM
U87 [2] = assay: Inhibition of ID2/KDR signalling in human U87 cells assessed as reduction in KDR mRNA expression at 12.5 to 50 uM measured after 24 hrs by qRT-PCR analysis; format: cell-based; settings: filed as antagonist, dose 12.5-50 µM
U-87MG ATCC [3] = assay: Antitumor activity against human U87 cells xenografted in NCG mouse assessed as reduction in Ki67 expression in tumor at 2.5 mg/kg, ip administered every other day for 5 days and measured after 7 days post first dose by immunohistochemical analysis; format: functional, organism-based; settings: time 7.0 day
GL261 [4] = assay: Antimigratory activity against mouse GL261 cells assessed as inhibition of cell migration measured after 24 hrs by crystal violet staining based inverted microscopic analysis; format: functional
U87 [5] = assay: Inhibition of ID2/KDR signalling in human U87 cells assessed as reduction in MMP9 expression at 12.5 to 50 uM measured after 24 hrs by western blot analysis; format: cell-based; settings: filed as antagonist, dose 12.5-50 µM
[6] = Toxicity in NCG mouse […] with human U87 cells assessed as kidney damage at 2.5 mg/kg, ip administered every other day for 5 days and measured after 7 days post first dose by H and E staining based assay; format: organism-based; settings: in vivo, 168 h, time 7 day
U-87 MG [7] = assay: Antimigratory activity against human U87 cells assessed as inhibition of cell migration measured after 24 hrs by crystal violet staining based inverted microscopic analysis; format: functional; settings: U-87MG ATCC
L02 = assay: Cytotoxicity against human L02 cells assessed as reduction in cell viability at up to 100 nM incubated for 24 hrs by CCK8 assay; format: cell-based; settings: l02, 24 h
U-87 MG [8] = assay: Induction of apoptosis in human U87 cells assessed as dead cells at 25 uM measured after 24 hrs by annexin V-FITC/propidium iodide staining based flow cytometry analysis (Rvb =3.52 %); format: functional, U-87MG ATCC
GL261 [9] = assay: Induction of apoptosis in mouse GL261 cells assessed as early apoptotic cells at 50 uM measured after 24 hrs by annexin V-FITC/propidium iodide staining based flow cytometry analysis (reference value: 1.61%); format: functional
GL261 [10] = assay: Induction of apoptosis in mouse GL261 cells assessed as dead cells at 50 uM measured after 24 hrs by annexin V-FITC/propidium iodide staining based flow cytometry analysis (reference value: 1.22%); format: functional
U-87 MG [11] = assay: Cytotoxicity against human U87 cells assessed as reduction in cell viability incubated for 24 hrs by CCK8 assay; format: functional, cell-based, U-87MG ATCC
GL261 [12] = assay: Induction of apoptosis in mouse GL261 cells assessed as early apoptotic cells at 25 uM measured after 24 hrs by annexin V-FITC/propidium iodide staining based flow cytometry analysis (reference value: 1.67%); format: functional
U-87 MG [13] = assay: Induction of apoptosis in human U87 cells assessed as dead cells at 50 uM measured after 24 hrs by annexin V-FITC/propidium iodide staining based flow cytometry analysis (Rvb =3.52 %); format: functional, U-87MG ATCC
Hs 683 = assay: Cytotoxicity against human Hs 683 cells assessed as reduction in cell viability incubated for 24 hrs by CCK8 assay; format: functional, cell-based; settings: Hs 683, 24 h
NIH3T3 = assay: Cytotoxicity against mouse 3T3 cells assessed as reduction in cell viability at up to 100 nM incubated for 24 hrs by CCK8 assay; format: cell-based; settings: nih3t3, 24 h
U-87 MG [14] = assay: Induction of apoptosis in human U87 cells assessed as early apoptotic cells at 50 uM measured after 24 hrs by annexin V-FITC/propidium iodide staining based flow cytometry analysis (reference value: 4.35%); format: functional, U-87MG ATCC
[15] = Toxicity in NCG mouse […] with human U87 cells assessed as liver damage at 2.5 mg/kg, ip administered every other day for 5 days and measured after 7 days post first dose by H and E staining based assay; format: organism-based; settings: in vivo, 168 h, time 7 day
U-87MG ATCC [16] = assay: Antitumor activity against human U87 cells xenografted in NCG mouse assessed as reduction in CD31 marker expression in tumor at 2.5 mg/kg, ip administered every other day for 5 days and measured after 7 days post first dose by immunohistochemical analysis; format: functional, organism-based; settings: time 7.0 day
U-87 MG [17] = assay: Antimigratory activity against human U87 cells assessed as reduction in wound closure at 12.5 uM measured up to 24 hrs by scratch wound healing assay (Rvb =61.5+/-10.21%); format: functional, U-87MG ATCC; design: scale not given: the % may be the effect or the level left; settings: time hrs <=24
U-87 MG [18] = assay: Induction of apoptosis in human U87 cells assessed as late apoptotic cells at 25 uM measured after 24 hrs by annexin V-FITC/propidium iodide staining based flow cytometry analysis (reference value: 2.56%); format: functional, U-87MG ATCC
GL261 [19] = assay: Cytotoxicity against mouse GL261 cells assessed as reduction in cell viability incubated for 24 hrs by CCK8 assay; format: functional, cell-based; settings: GL261, 24 h
U-87 MG [20] = assay: Induction of apoptosis in human U87 cells assessed as viable cells at 25 uM measured after 24 hrs by annexin V-FITC/propidium iodide staining based flow cytometry analysis (reference value: 89.6%); format: functional, U-87MG ATCC; settings: read-out: Activity
U87 [21] = assay: Inhibition of ID2/KDR signalling in human U87 cells assessed as increase in PTEN expression at 12.5 to 50 uM measured after 24 hrs by western blot analysis; format: cell-based; settings: filed as antagonist, dose 12.5-50 µM
[22] = Antitumor activity against human U87 cells xenografted in NCG mouse assessed as reduction in tumor weight at 2.5 mg/kg, ip administered every other day for 5 days and measured after 12 days relative to control; format: functional, U-87MG ATCC; design: scale not given: the % may be the effect or the level left; settings: time 12 day
GL261 [23] = assay: Induction of apoptosis in mouse GL261 cells assessed as late apoptotic cells at 50 uM measured after 24 hrs by annexin V-FITC/propidium iodide staining based flow cytometry analysis (reference value: 1.01%); format: functional
GL261 [24] = assay: Induction of apoptosis in mouse GL261 cells assessed as viable cells at 25 uM measured after 24 hrs by annexin V-FITC/propidium iodide staining based flow cytometry analysis (reference value: 96.1%); format: functional; settings: read-out: Activity
[25] = Toxicity in NCG mouse xenografted with human U87 cells assessed as reduction in body weight at 2.5 mg/kg, ip administered every other day for 5 days and measured after 12 days; format: organism-based; settings: in vivo, 288 h, time 12 day
[26] = Toxicity in NCG mouse […] with human U87 cells assessed as lung damage at 2.5 mg/kg, ip administered every other day for 5 days and measured after 7 days post first dose by H and E staining based assay; format: organism-based; settings: in vivo, 168 h, time 7 day
U87 [27] = assay: Inhibition of ID2/KDR signalling in human U87 cells assessed as decrease in KDR protein level measured after 24 hrs by western blot analysis; format: cell-based; settings: filed as antagonist
GL261 [28] = assay: Induction of apoptosis in mouse GL261 cells assessed as viable cells at 50 uM measured after 24 hrs by annexin V-FITC/propidium iodide staining based flow cytometry analysis (reference value: 96.1%); format: functional; settings: read-out: Activity
U87 [29] = assay: Inhibition of ID2/KDR signalling in human U87 cells assessed as decrease in ID2 protein level measured after 24 hrs by western blot analysis; format: cell-based; settings: filed as antagonist
U-87 MG [30] = assay: Induction of apoptosis in human U87 cells assessed as late apoptotic cells at 50 uM measured after 24 hrs by annexin V-FITC/propidium iodide staining based flow cytometry analysis (reference value: 2.56%); format: functional, U-87MG ATCC
[31] = Binding affinity to CM5 sensor chip immobilized human ID2 assessed as dissociation constant by SPR analysis

With O=C(C[C@@]1(O)C(=O)N(Cc2cccc(Cl)c2)c2ccccc21)c1ccccn1 the inhibition (U87 [1]) was “Active”, the inhibition (U87 [2]) was “Active” and the Activity (U-87MG ATCC [3]) was “Active”. For the same compound, the Activity (GL261 [4]) was “Dose-Dependent Effect”, the inhibition (U87 [5]) was “Active” and the Activity [6] was “Non-Toxic”. The Activity (U-87 MG [7]) was “Dose-Dependent Effect”, the Activity (L02) was “Non-Toxic” and the Activity (U-87 MG [8]) was 2.72%. It also gave an Activity (GL261 [9]) of 13.1%, an Activity (GL261 [10]) of 11% and an IC50 (U-87 MG [11]) of 27.3 µM. For the same compound, the Activity (GL261 [12]) was 8.24%, the Activity (U-87 MG [13]) was 1.29% and the IC50 (Hs 683) was 34.2 µM. For the same compound, the Activity (NIH3T3) was “Non-Toxic”, the Activity (U-87 MG [14]) was 27.3% and the Activity [15] was “Non-Toxic”. The Activity (U-87MG ATCC [16]) was “Active”, the Activity (U-87 MG [17]) was 5.59% and the Activity (U-87 MG [18]) was 43.9%. For the same compound, the IC50 (GL261 [19]) was 38.2 µM, the viability at 25 µM (U-87 MG [20]) was 8.04% and the inhibition (U87 [21]) was “Active”. For the same compound, the Activity [22] was 57.8%, the Activity (GL261 [23]) was 69.3% and the viability at 25 µM (GL261 [24]) was 70.2%. The Activity [25] was “Non-Toxic”, the Activity [26] was “Non-Toxic” and the inhibition (U87 [27]) was “Dose-Dependent Effect”. For the same compound, the viability at 50 µM (GL261 [28]) was 6.58%, the inhibition (U87 [29]) was “Dose-Dependent Effect” and the Activity (U-87 MG [30]) was 68.8%. It also gave a Kd [31] of 0.129 µM.
